Where “and” joins values, the source holds several entries; their conditions need not be identical. Identical values can stand only once. Like-named read-outs stand apart in the source and are kept apart here.
How the values were obtained:
[1] = CytoTox 96 LDH release cytotoxicity assay, U937; type: cell-based, human; conditions: human; U937 cells, LDH release
Procedure: (§1) The CytoTox 96® nonradioactive cytotoxicity assay (Promega, Madison, WI, USA) was performed to determine the number of cells affected by necrosis measuring LDH release. A U937 cell suspension (5 × 10^5 cells/mL) was prepared, and 99.5 µL of this suspension were added to the wells of clear, sterile, 96-well, U-bottomed plates (Greiner, Dungannon, UK). The test compounds (0.5 µL of a 200 × concentrated stock) or 0.5% DMSO (control) were added to each well, and the plates were shaken for 1 min at 100 rpm, followed by 3.5 h at 37 °C with 5% CO2. At this point, CytoTox 96® 10× lysis solution was added to the wells reserved for total lysis. These samples represented the LDH released following complete cell lysis. After 30 min, 50 µL of supernatant from each test well and total lysis well was transferred to new 96-well plates (Thermo Fisher Scientific, Bishop’s Stortford, UK). Prethawed CytoTox 96® buffer was mixed with the CytoTox 96® substrate, and 50 µL were added into each well. The plates were incubated for 10 min in darkness at 25 °C. CytoTox 96® stop buffer (50 µL) was added, and the plates were incubated for a further 15 min. LDH release was quantified by measuring A492 nm in a CLARIOstar® multimode microplate reader (BMG Labtech, Aylesbury, UK).

U937 cells = test: CytoTox 96 LDH release cytotoxicity assay, U937; type: cell-based, human; conditions: IC50 cytotoxicity/IC50 P. aeruginosa growth inhibition in M9 acetate
Procedure: as §1

P. aeruginosa = tested on: P. aeruginosa; set-up: method as in Fahnoe et al. [13]; conditions: ref Fahnoe et al. [13], cited from earlier work
MSPa = MSPa (Pseudomonas aeruginosa, UniProt Q9I636); test: Kinetic mode of action on MSPa; type: biochemical; set-up: made in house
MSPa, sequence (Q9I636 whole entry): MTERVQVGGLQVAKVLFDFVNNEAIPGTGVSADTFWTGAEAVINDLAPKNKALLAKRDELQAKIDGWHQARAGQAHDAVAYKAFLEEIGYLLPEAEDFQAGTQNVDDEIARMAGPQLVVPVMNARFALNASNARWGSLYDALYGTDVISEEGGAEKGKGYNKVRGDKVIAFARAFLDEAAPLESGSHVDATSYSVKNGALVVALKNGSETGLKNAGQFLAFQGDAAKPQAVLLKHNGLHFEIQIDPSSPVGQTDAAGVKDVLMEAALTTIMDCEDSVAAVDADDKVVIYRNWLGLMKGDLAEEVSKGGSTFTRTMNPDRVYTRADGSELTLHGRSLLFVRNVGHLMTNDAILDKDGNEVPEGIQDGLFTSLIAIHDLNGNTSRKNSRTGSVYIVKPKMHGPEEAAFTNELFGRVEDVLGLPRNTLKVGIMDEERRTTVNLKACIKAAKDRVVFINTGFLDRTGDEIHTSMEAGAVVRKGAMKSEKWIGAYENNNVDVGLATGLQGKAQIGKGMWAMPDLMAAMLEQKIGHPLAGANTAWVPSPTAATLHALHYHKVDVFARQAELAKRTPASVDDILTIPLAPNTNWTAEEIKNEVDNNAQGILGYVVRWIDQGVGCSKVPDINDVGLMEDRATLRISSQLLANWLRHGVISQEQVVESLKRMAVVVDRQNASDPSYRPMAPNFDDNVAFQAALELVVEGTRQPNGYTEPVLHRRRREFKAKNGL
Procedure: The enzymatic activity of purified ICLPa and MSPa was assayed essentially as previously described. Compounds were added to the reaction mixtures (minus substrates) and incubated for 5 min at 37 °C. The enzyme concentration in the reaction mixtures was 170 nM for ICL and 25 nM for MS (based on the concentration of the monomer in each case). […] The reactions were initiated by the addition of pH-adjusted substrates, and the initial rates were recorded as A324 nm (for ICLPa) and A412 nm (for MSPa) using a Biospectrometer (Eppendorf, Stevenage, UK). Substrate turnover was calculated from the molar extinction coefficient of the assay products: Glyoxylate-phenylhydrazone (16,800/M/cm) for ICLPa and 2-nitro-5-thiobenzoic acid (14,150/M/cm) for MSPa.
The mode of action of SB002 on MSPa and ICLPa was determined by titrating the respective substrates of each enzyme in the presence of three fixed concentrations of SB002 (selected to lie around the measured IC50 value) and measuring the reaction rates as outlined in Section 4.3. Double-reciprocal plots and best-fit inhibition models (GraphPad Prism v. 7.04) were used to assess the mode of inhibition. Inhibition constants were calculated using GraphPad Prism v. 7.04 (GraphPad Software, Inc., La Jolla, CA, USA). Each data point represents the mean ± SD for three independent replicates.

ICLPa = target: T1, ICLPa (Pseudomonas aeruginosa, UniProt Q9I0K4); test: Isothermal titration calorimetry, ICLPa; conditions: ITC
T1 sequence (Q9I0K4 1-531): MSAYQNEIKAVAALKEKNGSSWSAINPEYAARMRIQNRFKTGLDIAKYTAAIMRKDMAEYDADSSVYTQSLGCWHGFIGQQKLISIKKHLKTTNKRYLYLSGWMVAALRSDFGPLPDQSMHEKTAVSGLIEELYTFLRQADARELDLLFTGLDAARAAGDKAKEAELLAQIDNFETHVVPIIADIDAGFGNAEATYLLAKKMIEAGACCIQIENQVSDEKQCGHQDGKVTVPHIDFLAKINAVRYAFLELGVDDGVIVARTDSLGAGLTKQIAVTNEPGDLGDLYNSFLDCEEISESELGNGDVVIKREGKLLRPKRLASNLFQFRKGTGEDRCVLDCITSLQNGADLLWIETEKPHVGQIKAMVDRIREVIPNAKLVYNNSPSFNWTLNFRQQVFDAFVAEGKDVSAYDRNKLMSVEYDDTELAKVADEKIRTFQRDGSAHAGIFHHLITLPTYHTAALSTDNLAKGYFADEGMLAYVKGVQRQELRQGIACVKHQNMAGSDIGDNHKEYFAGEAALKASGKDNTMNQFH
Procedure: Protein samples were dialyzed (2 × 1 L) in a D-tube dialyzer (Merck, Watford, UK) for 3 h in 25 mM Tris-HCl, 100 mM NaCl, and 0.1 mM TCEP (pH 7.5). […] The syringe and the cell both contained a final concentration of 0.1% DMSO. The injection parameters for MSPa were: Reference power 15 µcal/sec, initial injection of 3 µL (3.6 sec per injection) with subsequent injections of 10 µL (12 sec per injection). Injections were spaced by 150 sec with a filter period of 2 sec. The injection parameters for ICLPa were: Reference power 15 µcal/sec, initial injection of 3 µL (3.6 sec per injection) with subsequent injections of 8 µL (10 sec per injection). Injections were spaced by 170 sec with a filter period of 2 sec. Data were analyzed in NITPIC (NITPIC, Bethesda, MD, USA) [31] for baseline calculations and then fit for thermodynamic parameters using the OneSite model in Origin 7.0 software (Origin Software Solutions, Bristol, UK). Each titration was carried out in duplicate.

[2] = CellTiter-Glo luminescent cell viability assay (ATP), A-375; type: cell-based, human; conditions: human; A-375 cells, 48 h, ATP luminescence; read-out: Cytotoxicity IC50 A-375
Procedure: (§2) The number of viable cells based on ATP quantification was determined using the CellTiter-Glo® luminescent cell viability assay (Promega, Madison, WI, USA, lot no. 0000200446). Briefly, cells were seeded into white, flat-bottomed, sterile 96-well plates (PerkinElmer, Beaconsfield, UK) and incubated for 24 h. For A-375 cells, we used 10,000 cells/well, and for H27 cells, we used 7500 cells/well. Test compounds were diluted in assay medium (Glutamax DMEM with 5% FBS (Gibco)) and added to the plates in two-fold dilutions starting at 100 µM. Negative controls (0.5% DMSO) and positive controls (camptothecin, 1.6 µM for the A-375 cells and 50 µM for the H27 cells) were also included, and the plates were incubated for an additional 48 h (95% humidity, 5% CO2 at 37 °C). After incubation, the cells were washed with PBS. To each well, we then added 50 µL of assay medium plus 50 µL of CellTiter-Glo® reagent. The samples were then shaken for 2 min at 100 rpm at 25 °C, followed by a further 10 min at 25 °C to stabilize the luminescence signal. Luminescence was measured using a VarioSkan LUX multimode microplate reader (Thermo Fisher Scientific, Vantaa, Finland).

A-375 cells = test: as above; type: cell-based, human; conditions: IC50 cytotoxicity/IC50 P. aeruginosa growth inhibition in M9 acetate
Procedure: as §2

[3] = 25 °C, reverse titration, ICLPa

| Compound | IC50 at 3.5 h [1] | Therapeutic index U937 (U937 cells) | MIC (P. aeruginosa; conversion of 8 μg/mL) | MIC (P. aeruginosa) | Ki (MSPa) | Mode of inhibition of MSPa with respect to acetyl-CoA (MSPa; acetyl-CoA varied, saturating (200 µM) glyoxylate) | Ki’ (binding to the ES complex), MSPa (MSPa; glyoxylate varied, 200 µM acetyl-CoA) | Mode of inhibition of MSPa with respect to glyoxylate (MSPa; glyoxylate varied, saturating (200 µM) acetyl-CoA) | Ka (ICLPa; [3]) | Kd (ICLPa; [3]) | ΔG (ICLPa; [3]) | ΔH (ICLPa; [3]) | −TΔS (ICLPa; [3]) | n (binding sites) (ICLPa; per monomeric unit of ICLPa) | IC50 at 48 h [2] | Therapeutic index A-375 (A-375 cells) |
| --- | --- | --- | --- | --- | --- | --- | --- | --- | --- | --- | --- | --- | --- | --- | --- | --- |
| CC(C)(C)OC(=O)/N=C(\NC(=O)OC(C)(C)C)Nc1cc(Cl)ccn1 [SB002] | 18.2 µM | 17 and 17.31 | 21.6 µM | 8 µg/mL | 4.5 µM | competitive mode of inhibition | 3.9 µM | uncompetitive inhibition at the lower inhibitor concentrations tested, and noncompetitive inhibition at the higher concentration of inhibitor | 718000 ± 149000 M | 1.43 µM | −7.98 ± 3.44×10^−1 kcal/mol | −4.22 ± 3.44×10^−1 kcal/mol | -3.76 kcal/mol | 0.53 and 0.53 ± 3.25 × 10^−2 |  |  |
| CC(C)(C)OC(=O)/N=C(\NC(=O)OC(C)(C)C)Nc1cc(C#N)ccn1 [SB023] | 3220 µM | 364 and 364.37 |  |  |  |  |  |  |  |  |  |  |  |  | 106 µM | 11.95 |

Source: paper PMC7177833, “2-Aminopyridine Analogs Inhibit Both Enzymes of the Glyoxylate Shunt in Pseudomonas aeruginosa” (International Journal of Molecular Sciences, 2020)
